# According to ChEMBL document CHEMBL5136983, “How the structural properties of the indole derivatives are important in kinase targeted drug design?: A case study on tyrosine kinase inhibitors” (Bioorg Med Chem, 2022):
# Target: T1, Epidermal growth factor receptor (Homo sapiens, UniProt P00533)
# T1 sequence (P00533 whole entry): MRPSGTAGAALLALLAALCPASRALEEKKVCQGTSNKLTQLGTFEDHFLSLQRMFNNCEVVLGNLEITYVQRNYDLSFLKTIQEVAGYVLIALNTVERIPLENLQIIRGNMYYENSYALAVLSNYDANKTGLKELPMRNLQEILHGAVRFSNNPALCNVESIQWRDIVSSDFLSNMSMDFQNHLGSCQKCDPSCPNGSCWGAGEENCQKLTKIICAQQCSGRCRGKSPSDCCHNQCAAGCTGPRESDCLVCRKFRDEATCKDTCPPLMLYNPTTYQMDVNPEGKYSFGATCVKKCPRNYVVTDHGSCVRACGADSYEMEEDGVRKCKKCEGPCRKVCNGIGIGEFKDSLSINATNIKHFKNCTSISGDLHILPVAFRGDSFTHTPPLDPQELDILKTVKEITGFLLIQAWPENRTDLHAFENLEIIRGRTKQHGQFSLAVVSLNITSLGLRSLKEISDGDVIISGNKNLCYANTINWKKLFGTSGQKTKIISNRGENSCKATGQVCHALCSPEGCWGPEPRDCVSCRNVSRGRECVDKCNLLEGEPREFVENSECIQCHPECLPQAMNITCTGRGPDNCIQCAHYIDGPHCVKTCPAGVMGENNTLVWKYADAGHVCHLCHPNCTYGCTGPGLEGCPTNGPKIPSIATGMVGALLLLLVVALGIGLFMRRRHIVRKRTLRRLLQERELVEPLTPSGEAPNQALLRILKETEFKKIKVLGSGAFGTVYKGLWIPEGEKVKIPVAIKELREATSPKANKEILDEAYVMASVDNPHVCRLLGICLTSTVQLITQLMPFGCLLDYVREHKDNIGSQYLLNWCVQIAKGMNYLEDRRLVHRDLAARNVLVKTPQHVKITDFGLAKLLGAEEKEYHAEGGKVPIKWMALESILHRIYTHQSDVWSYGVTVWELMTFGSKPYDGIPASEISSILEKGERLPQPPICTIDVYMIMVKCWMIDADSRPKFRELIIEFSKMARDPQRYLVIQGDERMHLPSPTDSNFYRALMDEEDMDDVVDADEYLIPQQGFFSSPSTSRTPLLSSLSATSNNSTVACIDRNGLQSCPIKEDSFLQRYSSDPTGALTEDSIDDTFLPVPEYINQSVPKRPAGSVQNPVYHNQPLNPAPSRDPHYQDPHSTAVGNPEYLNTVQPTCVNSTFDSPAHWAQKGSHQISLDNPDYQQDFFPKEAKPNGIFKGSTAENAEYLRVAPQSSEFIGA
# Description: Inhibition of EGFR derived from human A-431 cell membrane vesicles using copolymer of Glu/Ala/Tyr as substrate by scintillation counting method
row,Structure (SMILES),IC50 [nM]
1,O=C(CCc1c(SSc2[nH]c3ccccc3c2CCC(=O)Nc2ccccc2)[nH]c2ccccc12)Nc1ccccc1,850

# Target: T2, Proto-oncogene tyrosine-protein kinase Src (Homo sapiens, UniProt P12931)
# Experiment: Inhibition of src (unknown origin)
# T2 sequence (P12931 2-536 limits assumed): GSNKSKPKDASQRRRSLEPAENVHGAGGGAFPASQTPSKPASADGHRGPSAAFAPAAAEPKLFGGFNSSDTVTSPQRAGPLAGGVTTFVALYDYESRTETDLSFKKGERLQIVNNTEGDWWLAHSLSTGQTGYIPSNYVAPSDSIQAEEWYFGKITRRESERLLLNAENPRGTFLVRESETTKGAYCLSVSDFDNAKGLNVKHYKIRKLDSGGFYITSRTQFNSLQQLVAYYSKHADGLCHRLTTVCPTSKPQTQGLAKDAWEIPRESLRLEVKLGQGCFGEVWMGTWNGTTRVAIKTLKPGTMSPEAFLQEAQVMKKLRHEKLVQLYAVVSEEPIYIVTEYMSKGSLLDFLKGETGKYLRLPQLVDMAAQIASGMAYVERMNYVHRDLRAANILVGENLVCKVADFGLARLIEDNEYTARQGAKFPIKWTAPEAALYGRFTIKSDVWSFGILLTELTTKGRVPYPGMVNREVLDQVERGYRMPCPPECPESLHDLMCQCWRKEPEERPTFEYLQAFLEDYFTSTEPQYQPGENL
row,Structure (SMILES),IC50 [nM]
1,O=C1/C(=N\c2ccc(Cl)cc2)c2ccccc2N1Cc1ccccc1,106000

# Tested on: not listed separately
# Experiment: Antiproliferative activity against mouse Swiss-3T3 cells assessed as cell growth inhibition incubated for 72 hrs by cell counter method
# Format: toxicity, cell-based
row,Structure (SMILES),IC50 at 72 h [nM]
1,Cn1c(SSc2c(C(=O)Nc3ccccc3)c3c(O)cccc3n2C)c(C(=O)Nc2ccccc2)c2c(O)cccc21,1900

# Tested on: not listed separately
# Experiment: Inhibition of PDGF-BB-stimulated PDGFR autophosphorylation in mouse Swiss-3T3 cells treated for 2 hrs followed by PDGF-BB stimulation measured after 10 mins by immunoblot analysis
# Format: cell-based
row,Structure (SMILES),IC50 [nM]
1,COc1cccc2cc(C(=O)c3cc4ccccc4[nH]3)[nH]c12,> 30000
2,CN(C)CCC(=O)Oc1ccc2[nH]c(C(=O)c3cc4ccccc4[nH]3)cc2c1,100
3,Cc1ccc2[nH]c(C(=O)c3cc4ccccc4[nH]3)cc2c1,7500
4,COc1ccc2[nH]c(C(=O)c3cc4ccccc4[nH]3)cc2c1,300
5,O=C(c1cc2ccccc2s1)c1cc2ccccc2s1,> 30000
6,COCC(=O)Oc1ccc2[nH]c(C(=O)c3cc4ccccc4[nH]3)cc2c1,200
7,COc1ccc2cc(C(=O)c3cc4ccccc4[nH]3)[nH]c2c1,300
8,O=C(c1cc2ccccc2[nH]1)c1cc2cc(O)ccc2[nH]1,200

# Tested on: not listed separately
# Experiment: Inhibition of v-src (unknown origin)
row,Structure (SMILES),IC50 [nM]
1,CNC(=O)c1c([Se][Se]c2c(C(=O)NC)c3ccccc3n2C)n(C)c2ccccc12,400
2,CCN(CC)CCn1c([Se][Se]c2c(C(=O)NC)c3ccccc3n2CCN(CC)CC)c(C(=O)NC)c2ccccc21,1700
3,Cn1c([Se][Se]c2c(C(=O)OC(C)(C)C)c3ccccc3n2C)c(C(=O)OC(C)(C)C)c2ccccc21,1500
4,NC(Cc1c(SSc2[nH]c3ccccc3c2CC(N)C(=O)NCc2ccccc2)[nH]c2ccccc12)C(=O)NCc1ccccc1 (stereo unspecified),7000
5,CNC(=O)c1c(SSc2c(C(=O)NC)c3ccccc3n2C)n(C)c2ccccc12,6000
6,NC(Cc1c([Se][Se]c2[nH]c3ccccc3c2CC(N)C(=O)NCc2ccccc2)[nH]c2ccccc12)C(=O)NCc1ccccc1 (stereo unspecified),2000
7,CN(C)CCNC(=O)c1c([Se][Se]c2c(C(=O)NCCN(C)C)c3ccccc3n2C)n(C)c2ccccc12,1800

# Tested on: A549
# Experiment: Antiproliferative activity against human A549 cells assessed as cell growth inhibition
# Format: functional, cell-based
row,Structure (SMILES),IC50 [nM]
1,CCn1c(C)c(C(=O)NCc2ccc(F)cc2)c2cc(OCC(=O)NCCOc3ccccc3OC)ccc21,4990

# Tested on: HeLa
# Experiment: Antiproliferative activity against human HeLa cells assessed as cell growth inhibition
# Format: functional, cell-based
row,Structure (SMILES),IC50 [nM]
1,CCn1c(C)c(C(=O)NCc2ccc(F)cc2)c2cc(OCC(=O)NCCOc3ccccc3OC)ccc21,6810

# Tested on: SW480
# Experiment: Antiproliferative activity against human SW480 cells assessed as cell growth inhibition
# Format: functional, cell-based
row,Structure (SMILES),IC50 [nM]
1,CCn1c(C)c(C(=O)NCc2ccc(F)cc2)c2cc(OCC(=O)NCCOc3ccccc3OC)ccc21,13100

# Target: T1, Epidermal growth factor receptor
# Experiment: Inhibition of EGFR in human A-431 cell membrane vesicles using phospholipase C-gamma-1 as substrate incubated for 10 mins by scintillation counter method
# Format: cell membranes, Membrane vesicle
row,Structure (SMILES),IC50 [nM]
1,CN(C)CCNc1ncnc2c1[nH]c1ccccc12,> 10000
2,c1ccc2c(c1)[nH]c1c(NC3CCCCC3)ncnc12,> 10000

# Target: T2, Proto-oncogene tyrosine-protein kinase Src
# Experiment: Inhibition of p60 c-src (unknown origin)
row,Structure (SMILES),IC50 [nM]
1,O=C(OCCN1CCCCC1)c1cc2ccccc2n1Cc1ccccc1,1340

# Tested on: not listed separately
# Experiment: Inhibition of PDGFR (unknown origin)
# Design: species or system Homo sapiens
row,Structure (SMILES),IC50 [nM]
1,Cc1ccccc1-c1nc2c(c3c1[nH]c1ccc(O)cc13)C(=O)NC2=O,> 30000
2,COc1cc2[nH]c3c(-c4ccccc4C)nc4c(c3c2cc1OC)C(=O)NC4=O,1000
3,COc1ccccc1-c1nc2c(c3c1[nH]c1ccc(OCc4ccccc4)cc13)C(=O)NC2=O,> 30000
4,COc1ccccc1-c1nc2c(c3c1[nH]c1ccc(O)cc13)C(=O)NC2=O,10000
5,O=C1NC(=O)c2c1nc(-c1ccccc1)c1[nH]c3ccccc3c21,> 30000
6,COc1cc2[nH]c3c(-c4ccccc4)nc4c(c3c2cc1OC)C(=O)NC4=O,1000
7,COc1ccc2[nH]c3c(-c4ccccc4)nc4c(c3c2c1)C(=O)N(C)C4=O,> 30000
8,Cc1ccccc1-c1nc2c(c3c1[nH]c1ccc(OCc4ccccc4)cc13)C(=O)NC2=O,> 30000
9,COc1ccc2[nH]c3c(-c4ccccc4)nc4c(c3c2c1)C(=O)NC4=O,3000

# Target: T1, Epidermal growth factor receptor
# Experiment: Inhibition of EGFR derived from human A-431 cells using copolymer of Glu/Ala/Tyr as substrate by scintillation counting method
row,Structure (SMILES),IC50 [nM]
1,Cn1c(SSc2c(C(=O)Nc3ccccc3)c3c(O)cccc3n2C)c(C(=O)Nc2ccccc2)c2c(O)cccc21,> 100000
2,Cc1ccc2c(c1)c(C(=O)Nc1ccccc1)c(SSc1c(C(=O)Nc3ccccc3)c3cc(C)ccc3n1C)n2C,> 100000
3,Cc1ccc2c(C(=O)Nc3ccccc3)c(SSc3c(C(=O)Nc4ccccc4)c4ccc(C)cc4n3C)n(C)c2c1,> 100000
